Experimental data from paper PMC11968843, “Sulphostin-inspired N-phosphonopiperidones as selective covalent DPP8 and DPP9 inhibitors” (Nature Communications, 2025).
Where “and” joins values, the source holds several entries; their conditions need not be identical. Equal entries are not always repeated. Entries after “also recorded” stand apart in the source; their conditions may differ.

Assays:
HeLa wild-type cells = assay: Cell viability assay (MTT), inhibitor alone; type: cell-based; details: for Cell viability normalized to mock treated cells + 0 µM MMC: individual replicate values (Supplementary Figure 11a); for 95% confidence interval of difference: Figure 5d S11a, Ctrl. [-MMC] vs. compound [-MMC], Tukey's multiple comparisons test
Protocol: HeLa wild-type (HeLa Flp-In T-REx WT, kind gift from Prof. Matthias Hentze) and HeLa DPP9^KO cells (prepared in-house) were cultured in DMEM (ThermoFisher, USA) supplemented with 10% FBS (PAN Biotech, Germany), 2 mM L-Glutamin (ThermoFisher, USA) and 1% Penicillin/Streptomycin (100 U mL^−1 Penicillin and 100 µg mL^−1 Streptomycin, ThermoFisher, USA). Cells were seeded in 96-well flat-bottom cell culture plates (Greiner, Germany) at a concentration of 5 × 10^3 cells per well (37 °C and 5% CO2). The indicated concentration of Mitomycin C (MMC, Merck) was added to the cells 24 h after seeding, together with 10 µM of the indicated inhibitor. The inhibitors were refreshed every 24 h. Control cells were treated with DMSO.
Cell viability was measured 72 hours after the MMC treatment. For this, the medium was removed and replaced with phenol-red free DMEM (ThermoFisher, USA) containing 0.5 mg mL^−1 MTT (Sigma Aldrich, USA). Cells were incubated for 30 min at 37 °C, 5% CO2. Subsequently, the medium was removed and replaced by DMSO. The plates were shaken on an orbital shaker for 20 min before measuring the MTT signal on a CARIOstar Plus microplate reader (BMT labtech, Germany). Each experiment was performed three times, each in triplicates.

[1] = target: T1, HEK293 cell lysates (proteome-wide targets of probe 9) (Homo sapiens, UniProt P04259); assay: Competitive ABPP / direct target identification with alkyne probe 9 in HEK293 cell lysates; type: binding, H. sapiens; details: protein KRT6B
T1 construct: endogenous in cells; host or cells: HEK293 cell lysate
T1 sequence (P04259 whole entry): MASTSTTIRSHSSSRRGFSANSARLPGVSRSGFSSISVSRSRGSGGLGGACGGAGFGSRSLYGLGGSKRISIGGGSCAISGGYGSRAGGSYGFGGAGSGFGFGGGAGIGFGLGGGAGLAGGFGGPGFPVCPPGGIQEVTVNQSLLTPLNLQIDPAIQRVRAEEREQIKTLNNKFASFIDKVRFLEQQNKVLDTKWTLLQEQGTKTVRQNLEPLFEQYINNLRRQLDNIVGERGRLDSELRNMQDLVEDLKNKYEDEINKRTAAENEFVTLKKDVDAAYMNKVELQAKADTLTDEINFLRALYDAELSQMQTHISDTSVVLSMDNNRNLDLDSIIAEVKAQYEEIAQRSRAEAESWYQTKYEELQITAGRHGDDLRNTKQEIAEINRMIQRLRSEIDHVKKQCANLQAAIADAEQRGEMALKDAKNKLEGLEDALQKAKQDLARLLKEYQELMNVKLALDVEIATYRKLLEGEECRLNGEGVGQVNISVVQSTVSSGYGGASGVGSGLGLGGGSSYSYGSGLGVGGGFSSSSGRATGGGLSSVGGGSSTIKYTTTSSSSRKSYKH

[2] = target: T2, HEK293 cell lysates (proteome-wide targets of probe 9) (Homo sapiens, UniProt P07437); assay: as above; type: binding, H. sapiens; details: protein TUBB
T2 construct: endogenous in cells; host or cells: HEK293 cell lysate
T2 sequence (P07437 whole entry): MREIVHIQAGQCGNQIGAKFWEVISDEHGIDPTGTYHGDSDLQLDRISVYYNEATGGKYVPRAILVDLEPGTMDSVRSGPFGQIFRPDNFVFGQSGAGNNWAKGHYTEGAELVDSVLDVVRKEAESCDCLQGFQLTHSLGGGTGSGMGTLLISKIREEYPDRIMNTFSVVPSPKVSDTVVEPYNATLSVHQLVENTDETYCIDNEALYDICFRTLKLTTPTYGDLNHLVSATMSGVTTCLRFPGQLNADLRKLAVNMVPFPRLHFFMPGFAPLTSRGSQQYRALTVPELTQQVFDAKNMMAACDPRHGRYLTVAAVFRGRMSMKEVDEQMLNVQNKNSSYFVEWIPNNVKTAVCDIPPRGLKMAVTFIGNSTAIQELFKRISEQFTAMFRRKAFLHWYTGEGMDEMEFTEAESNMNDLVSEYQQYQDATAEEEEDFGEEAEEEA

[3] = target: T3, HEK293 cell lysates (proteome-wide targets of probe 9) (Homo sapiens, UniProt P07900); assay: as above; type: binding, H. sapiens; details: protein HSP90AA1
T3 construct: endogenous in cells; host or cells: HEK293 cell lysate

[4] = target: T4, HEK293 cell lysates (proteome-wide targets of probe 9) (Homo sapiens, UniProt P09211); assay: as above; type: binding, H. sapiens; details: protein GSTP1
T4 construct: endogenous in cells; host or cells: HEK293 cell lysate
T4 sequence (P09211 whole entry): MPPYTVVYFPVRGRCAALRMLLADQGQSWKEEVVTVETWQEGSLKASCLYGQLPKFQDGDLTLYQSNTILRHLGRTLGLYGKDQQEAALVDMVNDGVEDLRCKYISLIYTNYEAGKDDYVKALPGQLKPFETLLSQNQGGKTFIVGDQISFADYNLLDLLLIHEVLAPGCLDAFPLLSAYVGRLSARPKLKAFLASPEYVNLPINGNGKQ

[5] = target: T5, HEK293 cell lysates (proteome-wide targets of probe 9) (Homo sapiens, UniProt P10809); assay: as above; type: binding, H. sapiens; details: protein HSPD1
T5 construct: endogenous in cells; host or cells: HEK293 cell lysate
T5 sequence (P10809 27-573): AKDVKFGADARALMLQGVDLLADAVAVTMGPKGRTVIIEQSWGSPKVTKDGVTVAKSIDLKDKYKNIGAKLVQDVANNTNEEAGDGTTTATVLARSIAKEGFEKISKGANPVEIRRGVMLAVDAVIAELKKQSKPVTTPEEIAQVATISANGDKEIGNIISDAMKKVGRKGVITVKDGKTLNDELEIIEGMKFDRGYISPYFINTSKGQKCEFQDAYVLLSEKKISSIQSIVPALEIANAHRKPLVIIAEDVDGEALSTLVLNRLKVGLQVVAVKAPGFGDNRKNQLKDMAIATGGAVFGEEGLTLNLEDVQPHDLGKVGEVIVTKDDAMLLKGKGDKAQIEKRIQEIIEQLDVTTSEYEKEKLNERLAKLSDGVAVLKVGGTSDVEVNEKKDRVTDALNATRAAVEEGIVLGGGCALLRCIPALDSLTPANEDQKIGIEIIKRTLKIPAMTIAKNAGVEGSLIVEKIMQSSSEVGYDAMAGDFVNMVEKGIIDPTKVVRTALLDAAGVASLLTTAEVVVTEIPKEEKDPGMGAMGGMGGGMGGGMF

[6] = target: T6, HEK293 cell lysates (proteome-wide targets of probe 9) (Homo sapiens, UniProt P11021); assay: as above; type: binding, H. sapiens; details: protein HSPA5
T6 construct: endogenous in cells; host or cells: HEK293 cell lysate
T6 sequence (P11021 19-654): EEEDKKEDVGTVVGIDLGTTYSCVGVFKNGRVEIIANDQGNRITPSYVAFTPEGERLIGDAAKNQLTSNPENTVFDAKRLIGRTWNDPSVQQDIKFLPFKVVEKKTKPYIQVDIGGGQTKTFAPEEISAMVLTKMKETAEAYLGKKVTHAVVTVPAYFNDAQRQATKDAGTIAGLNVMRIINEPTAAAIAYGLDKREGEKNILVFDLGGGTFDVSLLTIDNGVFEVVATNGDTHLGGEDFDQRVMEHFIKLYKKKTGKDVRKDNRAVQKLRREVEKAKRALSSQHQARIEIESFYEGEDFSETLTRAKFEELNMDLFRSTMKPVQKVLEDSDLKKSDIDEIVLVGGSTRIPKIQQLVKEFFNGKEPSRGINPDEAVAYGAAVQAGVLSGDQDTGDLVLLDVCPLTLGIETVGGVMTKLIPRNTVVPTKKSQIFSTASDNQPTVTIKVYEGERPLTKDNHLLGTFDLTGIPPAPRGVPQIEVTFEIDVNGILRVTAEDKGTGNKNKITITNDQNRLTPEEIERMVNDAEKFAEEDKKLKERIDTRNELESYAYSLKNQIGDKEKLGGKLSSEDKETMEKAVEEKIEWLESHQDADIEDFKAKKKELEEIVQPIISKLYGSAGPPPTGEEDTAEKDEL

[7] = target: T7, HEK293 cell lysates (proteome-wide targets of probe 9) (Homo sapiens, UniProt P23528); assay: as above; type: binding, H. sapiens; details: protein CFL1
T7 construct: endogenous in cells; host or cells: HEK293 cell lysate
T7 sequence (P23528 whole entry): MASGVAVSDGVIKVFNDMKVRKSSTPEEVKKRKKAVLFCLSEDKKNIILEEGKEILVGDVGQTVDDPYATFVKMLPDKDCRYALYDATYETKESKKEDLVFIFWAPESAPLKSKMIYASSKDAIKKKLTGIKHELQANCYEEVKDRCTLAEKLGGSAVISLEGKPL

[8] = target: T8, HEK293 cell lysates (proteome-wide targets of probe 9) (Homo sapiens, UniProt P25398); assay: as above; type: binding, H. sapiens; details: protein RPS12
T8 construct: endogenous in cells; host or cells: HEK293 cell lysate

[9] = target: T9, HEK293 cell lysates (proteome-wide targets of probe 9) (Homo sapiens, UniProt P49368); assay: as above; type: binding, H. sapiens; details: protein CCT3
T9 construct: endogenous in cells; host or cells: HEK293 cell lysate
T9 sequence (P49368 whole entry): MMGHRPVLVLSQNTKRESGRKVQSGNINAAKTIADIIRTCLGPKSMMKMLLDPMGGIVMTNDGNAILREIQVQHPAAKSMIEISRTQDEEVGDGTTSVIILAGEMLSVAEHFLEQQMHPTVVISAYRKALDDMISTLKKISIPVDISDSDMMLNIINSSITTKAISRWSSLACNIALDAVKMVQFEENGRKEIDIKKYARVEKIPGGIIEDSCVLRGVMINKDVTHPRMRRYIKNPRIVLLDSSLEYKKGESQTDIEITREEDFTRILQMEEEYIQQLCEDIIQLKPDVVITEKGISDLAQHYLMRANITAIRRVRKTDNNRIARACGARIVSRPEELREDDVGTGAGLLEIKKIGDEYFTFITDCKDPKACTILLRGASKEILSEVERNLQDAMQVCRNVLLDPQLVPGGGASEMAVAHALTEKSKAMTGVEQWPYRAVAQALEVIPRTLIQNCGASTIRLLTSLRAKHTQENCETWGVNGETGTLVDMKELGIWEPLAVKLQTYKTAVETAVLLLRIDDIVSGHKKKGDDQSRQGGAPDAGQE

[10] = target: T10, HEK293 cell lysates (proteome-wide targets of probe 9) (Homo sapiens, UniProt P53396); assay: as above; type: binding, H. sapiens; details: protein ACLY
T10 construct: endogenous in cells; host or cells: HEK293 cell lysate
T10 sequence (P53396 whole entry): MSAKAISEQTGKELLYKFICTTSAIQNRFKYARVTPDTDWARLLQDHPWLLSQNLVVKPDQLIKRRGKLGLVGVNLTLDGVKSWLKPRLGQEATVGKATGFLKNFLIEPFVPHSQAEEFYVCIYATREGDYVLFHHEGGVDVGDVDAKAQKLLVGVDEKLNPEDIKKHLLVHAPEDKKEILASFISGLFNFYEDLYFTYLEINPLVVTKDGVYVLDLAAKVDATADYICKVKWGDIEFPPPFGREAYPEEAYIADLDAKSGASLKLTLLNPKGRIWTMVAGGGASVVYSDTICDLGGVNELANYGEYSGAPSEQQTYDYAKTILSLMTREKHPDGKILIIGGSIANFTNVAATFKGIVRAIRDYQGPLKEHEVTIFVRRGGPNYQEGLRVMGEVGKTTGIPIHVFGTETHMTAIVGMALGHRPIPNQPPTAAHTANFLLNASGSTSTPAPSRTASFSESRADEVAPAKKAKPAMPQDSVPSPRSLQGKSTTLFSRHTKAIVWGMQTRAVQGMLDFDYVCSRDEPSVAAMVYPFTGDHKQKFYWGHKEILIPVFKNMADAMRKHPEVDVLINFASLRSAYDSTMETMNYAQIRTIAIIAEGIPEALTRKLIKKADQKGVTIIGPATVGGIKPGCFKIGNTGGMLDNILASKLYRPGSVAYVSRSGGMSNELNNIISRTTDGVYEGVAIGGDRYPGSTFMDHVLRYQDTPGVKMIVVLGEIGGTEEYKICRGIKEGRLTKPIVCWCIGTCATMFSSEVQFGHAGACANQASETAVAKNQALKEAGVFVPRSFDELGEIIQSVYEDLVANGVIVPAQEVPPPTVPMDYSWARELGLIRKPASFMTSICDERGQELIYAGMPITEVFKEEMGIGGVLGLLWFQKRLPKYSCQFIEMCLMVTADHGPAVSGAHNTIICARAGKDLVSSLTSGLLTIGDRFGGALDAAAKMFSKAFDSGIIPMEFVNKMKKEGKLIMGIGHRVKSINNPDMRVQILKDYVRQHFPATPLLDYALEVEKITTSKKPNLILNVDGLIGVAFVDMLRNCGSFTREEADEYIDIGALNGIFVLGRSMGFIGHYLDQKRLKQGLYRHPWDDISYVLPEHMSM

[11] = target: T11, HEK293 cell lysates (proteome-wide targets of probe 9) (Homo sapiens, UniProt P62424); assay: as above; type: binding, H. sapiens; details: protein RPL7A
T11 construct: endogenous in cells; host or cells: HEK293 cell lysate

[12] = target: T12, HEK293 cell lysates (proteome-wide targets of probe 9) (Homo sapiens, UniProt Q07020); assay: as above; type: binding, H. sapiens; details: protein RPL18
T12 construct: endogenous in cells; host or cells: HEK293 cell lysate

[13] = target: T13, HEK293 cell lysates (proteome-wide targets of probe 9) (Homo sapiens, UniProt Q13642); assay: as above; type: binding, H. sapiens; details: protein FHL1
T13 construct: endogenous in cells; host or cells: HEK293 cell lysate
T13 sequence (Q13642 whole entry): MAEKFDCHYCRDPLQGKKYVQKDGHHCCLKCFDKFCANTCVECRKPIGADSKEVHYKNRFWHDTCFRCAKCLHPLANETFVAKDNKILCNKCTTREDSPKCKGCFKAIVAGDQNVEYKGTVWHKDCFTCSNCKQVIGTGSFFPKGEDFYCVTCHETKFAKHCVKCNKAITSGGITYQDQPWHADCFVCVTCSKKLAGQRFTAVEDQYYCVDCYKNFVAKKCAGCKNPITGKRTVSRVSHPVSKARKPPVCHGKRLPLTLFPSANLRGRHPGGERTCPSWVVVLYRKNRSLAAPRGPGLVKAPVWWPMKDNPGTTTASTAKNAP

CCCCCCP(=O)(OCC)N1CCC[C@H](N)C1=O (stereo partly shown) [Compound 5]
Cell viability normalized to mock treated cells + 0 µM MMC (HeLa wild-type cells): 95.9127% and 99.5028% and 95.7865% and 114.42% and 79.6662% and 94.1915% and 91.8119% and 83.2505% and 91.8375% | 95% confidence interval of difference (HeLa wild-type cells): -2,823 to 18,38

CCCCCc1ccc(SCCP(=O)(OCC)N2CCC[C@H](N)C2=O)cc1.O=C(O)C(F)(F)F (stereo partly shown) [Compound 16]
Log2-fold change (16/9) [1]: 1.89 | Log2-fold change (16/9) [2]: -2.286 | Log2-fold change (16/9) [3]: -0.09553 | Log2-fold change (16/9) [4]: -1.311 | Log2-fold change (16/9) [5]: 0.04221 | Log2-fold change (16/9) [6]: 0.6165 | Log2-fold change (16/9) [7]: -0.1396 | Log2-fold change (16/9) [8]: 0.07588 | Log2-fold change (16/9) [9]: -1.0355 | Log2-fold change (16/9) [10]: -0.4196 | Log2-fold change (16/9) [11]: 0.2888 | Log2-fold change (16/9) [12]: -1.003 | Log2-fold change (16/9) [13]: 0.2096 | Cell viability normalized to mock treated cells + 0 µM MMC (HeLa wild-type cells): 97.3681% and 98.2989% and 98.3512% and 104.946% and 88.3417% and 98.5541% and 95.4309% and 92.3469% and 88.9994% | 95% confidence interval of difference (HeLa wild-type cells): -4,629 to 16,57 | effect on cell viability without MMC (HeLa wild-type cells; HeLa wild-type, 10 µM, 72 h): not toxic to cells; also recorded: did not show cytotoxic effects

C#CCCCP(=O)(OCC)N1CCCC(N)C1=O.O=C(O)C(F)(F)F (mixture of isomers) [Compound 9]
Log2-fold change (9/DMSO) [1]: -0.8544 | Log2-fold change (9/DMSO) [2]: 1.741 | Log2-fold change (9/DMSO) [3]: -0.06179 | Log2-fold change (9/DMSO) [4]: 1.848 | Log2-fold change (9/DMSO) [5]: -1.284 | Log2-fold change (9/DMSO) [6]: -0.3942 | Log2-fold change (9/DMSO) [7]: 0.4225 | Log2-fold change (9/DMSO) [8]: -1.46 | Log2-fold change (9/DMSO) [9]: 1.2654 | Log2-fold change (9/DMSO) [10]: 0.4032 | Log2-fold change (9/DMSO) [11]: 1.788 | Log2-fold change (9/DMSO) [12]: 1.2987 | Log2-fold change (9/DMSO) [13]: -0.4077
